From PubChem BioAssay AID1918952 (Molecular Pharmacology Branch, DTP, NCI, 2023)
Several values for one entry are separate records, joined by “and”; a condition that tells them apart may be missing. Identical values can stand only once.

Tested on: LG0703-F948-PDC complex spheroid viability
Test: Anticancer human tumor LG0703-F948-PDC patient-derived lung adenocarcinoma cell line growth inhibition
Details: for viability, T/C: stronger effect = lower value
Method in brief: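 Drug combinations with the LSD1 inhibitor iadademstat tested on tumor cells co-cultured as spheroids with endothelial cells and mesenchymal stem cells. Concentrations descended in half-log increments from clinical Cmax or 10 microM.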

[1] = curve of first compound, second compound 0.1 µM
[2] = curve of first compound, second compound 0.316 µM
[3] = curve of first compound, second compound 1 µM
[4] = curve of first compound, second compound 3.16 µM
[5] = curve of first compound, second compound 10 µM
[6] = second compound 0.1 µM, first compound 0.00316 µM
[7] = second compound 0.1 µM, first compound 0.01 µM
[8] = second compound 0.1 µM, first compound 0.0316 µM
[9] = second compound 0.1 µM, first compound 0.1 µM
[10] = second compound 0.1 µM, first compound 0.316 µM
[11] = second compound 0.1 µM, first compound 1 µM
[12] = second compound 0.316 µM, first compound 0.00316 µM
[13] = second compound 0.316 µM, first compound 0.01 µM
[14] = second compound 0.316 µM, first compound 0.0316 µM
[15] = second compound 0.316 µM, first compound 0.1 µM
[16] = second compound 0.316 µM, first compound 0.316 µM
[17] = second compound 0.316 µM, first compound 1 µM
[18] = second compound 1 µM, first compound 0.00316 µM
[19] = second compound 1 µM, first compound 0.01 µM
[20] = second compound 1 µM, first compound 0.0316 µM
[21] = second compound 1 µM, first compound 0.1 µM
[22] = second compound 1 µM, first compound 0.316 µM
[23] = second compound 1 µM, first compound 1 µM
[24] = second compound 3.16 µM, first compound 0.00316 µM
[25] = second compound 3.16 µM, first compound 0.01 µM
[26] = second compound 3.16 µM, first compound 0.0316 µM
[27] = second compound 3.16 µM, first compound 0.1 µM
[28] = second compound 3.16 µM, first compound 0.316 µM
[29] = second compound 3.16 µM, first compound 1 µM
[30] = second compound 10 µM, first compound 0.00316 µM
[31] = second compound 10 µM, first compound 0.01 µM
[32] = second compound 10 µM, first compound 0.0316 µM
[33] = second compound 10 µM, first compound 0.1 µM
[34] = second compound 10 µM, first compound 0.316 µM
[35] = second compound 10 µM, first compound 1 µM
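Also: spheroids exposed to agents for seven days before readout.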
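For viability, T/C in this document: 100% = DMSO vehicle control wells as normalization base.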

For CC1COCCN1c1cc(-c2ccnn2C)c2ccnc(-c3ccn[nH]3)c2n1 (configuration not stated) + NC1CC1c1ccc(-c2cccc(O)c2)cc1, the IC50 [1] was 37.4 nM, the IC50 [2] was 44.4 nM and the IC50 [3] was 49.1 nM. It also gave an IC50 [4] of 43.7 nM, an IC50 [5] of 46.3 nM and a viability, T/C [6] of 80.4%. The viability, T/C [7] was 74.6%, the viability, T/C [8] was 49.8% and the viability, T/C [9] was 32.7%. For the same compound, the viability, T/C [10] was 20.2%, the viability, T/C [11] was 7.17% and the viability, T/C [12] was 85.5%. It also gave a viability, T/C [13] of 72.3%, a viability, T/C [14] of 57.9% and a viability, T/C [15] of 33.9%. The viability, T/C [16] was 18.7%, the viability, T/C [17] was 6.39% and the viability, T/C [18] was 73%. It also gave a viability, T/C [19] of 70.2%, a viability, T/C [20] of 64.1% and a viability, T/C [21] of 27.9%. It also gave a viability, T/C [22] of 21.6%, a viability, T/C [23] of 6.68% and a viability, T/C [24] of 80.8%. The viability, T/C [25] was 77%, the viability, T/C [26] was 55.7% and the viability, T/C [27] was 31.4%. The viability, T/C [28] was 19.1%, the viability, T/C [29] was 6.21% and the viability, T/C [30] was 91.1%. It also gave a viability, T/C [31] of 82.3%, a viability, T/C [32] of 60.4% and a viability, T/C [33] of 28.6%. The viability, T/C [34] was 18.8% and the viability, T/C [35] was 8.21%.
With CC[C@@]1(O)C(=O)OCc2c1cc1n(c2=O)Cc2cc3c(CN(C)C)c(O)ccc3nc2-1 + NC1CCC(NC2CC2c2ccccc2)CC1 the IC50 [1] was > 100 nM, the IC50 [2] was > 100 nM and the IC50 [3] was > 100 nM. The IC50 [4] was > 100 nM, the IC50 [5] was > 100 nM and the viability, T/C (second compound 0.1 µM, first compound 0.000316 µM) was 103%. It also gave a viability, T/C (second compound 0.1 µM, first compound 0.001 µM) of 129%, a viability, T/C [6] of 110% and a viability, T/C [7] of 87.4%. For the same compound, the viability, T/C [8] was 64.8%, the viability, T/C [9] was 52.8% and the viability, T/C (second compound 0.316 µM, first compound 0.000316 µM) was 117%. It also gave a viability, T/C (second compound 0.316 µM, first compound 0.001 µM) of 111%, a viability, T/C [12] of 104% and a viability, T/C [13] of 95.8%. The viability, T/C [14] was 78.2%, the viability, T/C [15] was 63% and the viability, T/C (second compound 1 µM, first compound 0.000316 µM) was 128%. It also gave a viability, T/C (second compound 1 µM, first compound 0.001 µM) of 132%, a viability, T/C [18] of 122% and a viability, T/C [19] of 101%. The viability, T/C [20] was 77.7%, the viability, T/C [21] was 61.9% and the viability, T/C (second compound 3.16 µM, first compound 0.000316 µM) was 110%. The viability, T/C (second compound 3.16 µM, first compound 0.001 µM) was 134%, the viability, T/C [24] was 117% and the viability, T/C [25] was 101%. It also gave a viability, T/C [26] of 98.4%, a viability, T/C [27] of 69.6% and a viability, T/C (second compound 10 µM, first compound 0.000316 µM) of 130%. For the same compound, the viability, T/C (second compound 10 µM, first compound 0.001 µM) was 123%, the viability, T/C [30] was 115% and the viability, T/C [31] was 96.6%. For the same compound, the viability, T/C [32] was 96.8% and the viability, T/C [33] was 84.5%.
Compound Nc1ccn(C2OC(CO)C(O)C2(F)F)c(=O)n1 (configuration not stated) + NC1CCC(NC2CC2c2ccccc2)CC1 has an IC50 [1] of 3.35 nM, an IC50 [2] of 4.37 nM and an IC50 [3] of 15.2 nM. The IC50 [4] was 24.4 nM, the IC50 [5] was 19.3 nM and the viability, T/C (second compound 0.1 µM, first compound 0.000949 µM) was 68.9%. For the same compound, the viability, T/C (second compound 0.1 µM, first compound 0.003 µM) was 50.5%, the viability, T/C (second compound 0.1 µM, first compound 0.00949 µM) was 41.8% and the viability, T/C (second compound 0.1 µM, first compound 0.03 µM) was 44%. For the same compound, the viability, T/C (second compound 0.1 µM, first compound 0.0949 µM) was 39.1%, the viability, T/C (second compound 0.1 µM, first compound 0.3 µM) was 36.8% and the viability, T/C (second compound 0.316 µM, first compound 0.000949 µM) was 67.5%. It also gave a viability, T/C (second compound 0.316 µM, first compound 0.003 µM) of 52.3%, a viability, T/C (second compound 0.316 µM, first compound 0.00949 µM) of 45.3% and a viability, T/C (second compound 0.316 µM, first compound 0.03 µM) of 41.1%. For the same compound, the viability, T/C (second compound 0.316 µM, first compound 0.0949 µM) was 44.2%, the viability, T/C (second compound 0.316 µM, first compound 0.3 µM) was 38.6% and the viability, T/C (second compound 1 µM, first compound 0.000949 µM) was 74.6%. For the same compound, the viability, T/C (second compound 1 µM, first compound 0.003 µM) was 56.1%, the viability, T/C (second compound 1 µM, first compound 0.00949 µM) was 55% and the viability, T/C (second compound 1 µM, first compound 0.03 µM) was 46.4%. It also gave a viability, T/C (second compound 1 µM, first compound 0.0949 µM) of 48.1%, a viability, T/C (second compound 1 µM, first compound 0.3 µM) of 37.2% and a viability, T/C (second compound 3.16 µM, first compound 0.000949 µM) of 86.8%. It also gave a viability, T/C (second compound 3.16 µM, first compound 0.003 µM) of 65.8%, a viability, T/C (second compound 3.16 µM, first compound 0.00949 µM) of 54.1% and a viability, T/C (second compound 3.16 µM, first compound 0.03 µM) of 51.5%. It also gave a viability, T/C (second compound 3.16 µM, first compound 0.0949 µM) of 45.1%, a viability, T/C (second compound 3.16 µM, first compound 0.3 µM) of 43.6% and a viability, T/C (second compound 10 µM, first compound 0.000949 µM) of 83.1%. It also gave a viability, T/C (second compound 10 µM, first compound 0.003 µM) of 56.8%, a viability, T/C (second compound 10 µM, first compound 0.00949 µM) of 56.8% and a viability, T/C (second compound 10 µM, first compound 0.03 µM) of 49%. The viability, T/C (second compound 10 µM, first compound 0.0949 µM) was 51.1% and the viability, T/C (second compound 10 µM, first compound 0.3 µM) was 42.2%.
With O=C(c1cc(Cc2n[nH]c(=O)c3ccccc23)ccc1F)N1CCN(C(=O)C2CC2)CC1 + NC1CCC(NC2CC2c2ccccc2)CC1 the IC50 [1] was > 10000 nM, the IC50 [2] was > 10000 nM and the IC50 [3] was > 10000 nM. For the same compound, the IC50 [4] was > 10000 nM, the IC50 [5] was > 10000 nM and the viability, T/C [8] was 101%. The viability, T/C [9] was 100%, the viability, T/C [10] was 91.5% and the viability, T/C [11] was 99.4%. For the same compound, the viability, T/C (second compound 0.1 µM, first compound 3.16 µM) was 80.9%, the viability, T/C (second compound 0.1 µM, first compound 10 µM) was 76.8% and the viability, T/C [14] was 112%. It also gave a viability, T/C [15] of 117%, a viability, T/C [16] of 106% and a viability, T/C [17] of 89.4%. The viability, T/C (second compound 0.316 µM, first compound 3.16 µM) was 94.3%, the viability, T/C (second compound 0.316 µM, first compound 10 µM) was 84% and the viability, T/C [20] was 121%. It also gave a viability, T/C [21] of 125%, a viability, T/C [22] of 123% and a viability, T/C [23] of 130%. For the same compound, the viability, T/C (second compound 1 µM, first compound 3.16 µM) was 95.3%, the viability, T/C (second compound 1 µM, first compound 10 µM) was 98.2% and the viability, T/C [26] was 116%. The viability, T/C [27] was 110%, the viability, T/C [28] was 113% and the viability, T/C [29] was 107%. For the same compound, the viability, T/C (second compound 3.16 µM, first compound 3.16 µM) was 112%, the viability, T/C (second compound 3.16 µM, first compound 10 µM) was 106% and the viability, T/C [32] was 109%. The viability, T/C [33] was 106%, the viability, T/C [34] was 103% and the viability, T/C [35] was 109%. The viability, T/C (second compound 10 µM, first compound 3.16 µM) was 94% and the viability, T/C (second compound 10 µM, first compound 10 µM) was 84%.
In the case of CC[C@@]1(O)C(=O)OCc2c1cc1n(c2=O)Cc2cc3c(CN(C)C)c(O)ccc3nc2-1, the viability, T/C (compound 0.000316 µM) is reported as 111% and 107%, the viability, T/C (compound 0.001 µM) is reported as 97% and 103% and the viability, T/C (compound 0.00316 µM) is reported as 96.5% and 94.7%. For the same compound, the viability, T/C (compound 0.01 µM) was 92.4% and 88.5%, the viability, T/C (compound 0.0316 µM) was 65.7% and 67.3% and the viability, T/C (compound 0.1 µM) was 44.6% and 40.1%. For the same compound, the IC50 (curve of compound) was 75.4 nM and 66.7 nM.
